Assay results: patent US20240376069A1, “COMPOUNDS AND METHODS FOR LABELING LIPIDATED NUCLEOTIDES” (The Research Foundation for The State University of New York, priority 2023, published 2024)

Key:
[1] = biological target: SelU (Escherichia coli, UniProt P33667); format: biochemical, E. coli; settings: for modified RNA residues after click reaction and RNase cleavage (recognition by SelU): HPLC and MS-spec data
[2] = system: HEK293T cells; test: In-cell fluorescent labelling of SelU-mediated tRNA geranylation, confocal imaging; format: cell-based
Procedure: The HEK293T cells were washed twice with PBS, and trypsin was added for 1 min. Then 2.0 mL DMEM medium was added to the mixed well, followed by centrifuged at 1,000 r.p.m for 5 min, and the supernatant was discarded. Fresh medium was added to resuspend the cell pellet and cells were seeded in a confocal dish at the density of 0.5×1 05, the cells were gently mixed using pipette, and then placed in CO2 incubator. 150 mM sterile NaCl solution was prepared as a diluent for DNA and Vigofect (Vigorous Biotechnology Beijing Co., Ltd.). The culture medium in the confocal dish was then replaced with fresh complete culture medium before transfection, and the culture was incubated at 37° C. under 5% CO2 atmosphere. […] Configure the transfection working solution. […] Next, 2.5 μl VigoFect was added to the diluent (total 100 μl), and the solution was mixed gently and placed at room temperature for 5 min. Next, the diluted VigoFect was added into the diluted DNA solution gently, and the resulting transfection working solution was incubated at room temperature for 15 min. Subsequently, the working solution was added to the cell culture, mixed gently and incubated for 24 h. […] Cells were washed with PBS 3 times and then fixed with 4% paraformaldehyde for 15 min, and subsequently permeabilized with 0.5% Triton X-100 for 15 min. […]

[3] = system: HeLa cells; test: Cytotoxic assays of i^6A (4) towards HeLa cells; format: cell-based
Description: In order to better detect the involvement of i^6A (4) in the transcription process of cellular RNA, we also tested the effect of i^6A (4) on cytotoxicity and optimized the concentration of i^6A (4) to treat cells.

[4] = system: HeLa cells; test: Incorporation of i^6A into total RNA of eukaryotic cells, detected with PTAD-DBCO-FITC (8); format: cell-based
Procedure: Next, we will further test whether i^6A (4) can participate in the RNA transcription process in eukaryotic cells. First culture the HeLa cells in a six-well plate to 70%-80%. […] After 12 hours of culture, collect all cells and extract total RNA.
To the 1.5 mL Eppendorf tube containing PTAD-DBCO-FITC precursor (7, 10 μL, 10 mM solution in DMF) was added N-bromo succinimide (1.0 μL, 100 mM in DMF). The mixture was vortexed gently and formation of the light-red color was observed. The reagent was kept on ice and used for the i^6A-incorporated RNA labelling immediately. Labeling protocol is the same stated above.
HeLa cells was obtained from ATCC. HeLa cells were cultured in DMED medium with 10% fetal calf serum. Cells were maintained in a humidified incubator at 5% CO2 and 37° C. To label RNA in vivo, HeLa cells were cultured in 6-well plates to 70%-80%. […] Then it will be detected by agarose gel electrophoresis. […]
The i^6A-incorporated total RNA ([…], 20 ng/mL in DEPC water) was incubated with PTAD-DBCO-FITC ([…] of a 0.1 mM solution), shaken for 30 minutes at 0° C. The RNA was then analyzed through gel electrophoresis on a 1% agarose gel. […] Gels were analyzed by in-gel fluorescence measurements on a FluorChem® FC3 imager (Alpha Innotech). Fluorescence was measured with a blue light excitation wavelength (475 nm) and a green filter emission (537 nm).

[5] = Dynamic investigation of the Ene-ligation of i^6A with PTAD by proton NMR; format: physicochemical; settings: i^6A 30 mM, PTAD 0.15 mmol, CD3CN/D2O (v/v, 1/1), room temperature, within 5 minutes
Procedure: Nucleoside i^6A (4, 10 mg, 0.03 mmol) were dissolved in CD3CN/D2O (1.0 mL, v/v=1:1, final concentration=30 mM). PTAD (5, 26 mg, 0.15 mmol) was then added to the solution (final concentration=150 mM), and the reaction mixture was allowed to stand at room temperature. The ^1H NMR spectra were recorded by proton NMR (400 MHz).
The nucleoside i^6A (10 mg, 0.03 mmol) was dissolved in a mixture of CD3CN and D2O (0.5 mL, volume-to-volume ratio of 4:1, resulting in a final concentration of 60 mM). Subsequently, 4-phenyl-3H-1,2,4-triazole-3,5(4H)-dione (PTAD, 26 mg, 0.15 mmol, equivalent to 5 times the amount of i^6A) was added to the solution (resulting in a final concentration of 300 mM). The reaction mixture was then allowed to stand at room temperature. The ^1H NMR spectra were obtained using a 400 MHz ^1H NMR instrument with CD3CN/D2O as the solvent.

[6] = Iodine-mediated cyclisation of nucleoside i^6A; format: physicochemical; settings: optimized concentration of iodine reagent
Procedure: Model reactions of i^6A nucleoside (4). The model reactions were carried out in DMSO-d6 in order to facilitate in situ NMR characterization without further purification. i^6A (4, 0.15 mmol) was dissolved in DMSO-d6 (0.5 mL), and iodine (0.45 mmol) was added. The mixture was stirred at 37° C. for 5 minutes and was taken out for ^1H NMR.
The reactions were conducted in DMSO-d^6 to enable in situ NMR characterization without the need for additional purification. i^6A (4, 0.15 mmol) was dissolved in DMSO-d^6 (0.5 mL), and iodine (0.45 mmol in DMSO-d^6) was subsequently added to the solution. The mixture was then stirred at 37° C. for 5 minutes. After this incubation period, the reaction mixture was subjected to ^1H NMR, ^13C NMR, HPLC, UV and LC-MS analysis.

[7] = system: prenylated tRNA; test: Direct fluorescent labelling of prenylated tRNA by Ene-ligation, in-gel fluorescence; settings: 10 μM probe; total RNAs isolated from E. coli
Procedure: tRNA (1.0 mg) isolated from E. coli using Zymo purification kit strictly following the instruction protocol was dissolved in PBS buffer (0.1 M, pH=7.4) and the PTAD-DBCO-Cy5 probe (1.0 mM) generated by in-situ oxidation with N-bromosuccinimide (NBS, 1 M in DMF) was added in one portion at 4° C. The mixture was incubated at 4° C. for 15 min in a sterile tube. And excess fluorescent probe was removed by 3K filter (Millipore) and the resulting nucleic acid was analyzed by in-gel fluorescence (Scheme S8).

[8] = biological target: T7 RNA polymerase (Escherichia phage T7, UniProt P00573)
T7 RNA polymerase, sequence (P00573 whole entry): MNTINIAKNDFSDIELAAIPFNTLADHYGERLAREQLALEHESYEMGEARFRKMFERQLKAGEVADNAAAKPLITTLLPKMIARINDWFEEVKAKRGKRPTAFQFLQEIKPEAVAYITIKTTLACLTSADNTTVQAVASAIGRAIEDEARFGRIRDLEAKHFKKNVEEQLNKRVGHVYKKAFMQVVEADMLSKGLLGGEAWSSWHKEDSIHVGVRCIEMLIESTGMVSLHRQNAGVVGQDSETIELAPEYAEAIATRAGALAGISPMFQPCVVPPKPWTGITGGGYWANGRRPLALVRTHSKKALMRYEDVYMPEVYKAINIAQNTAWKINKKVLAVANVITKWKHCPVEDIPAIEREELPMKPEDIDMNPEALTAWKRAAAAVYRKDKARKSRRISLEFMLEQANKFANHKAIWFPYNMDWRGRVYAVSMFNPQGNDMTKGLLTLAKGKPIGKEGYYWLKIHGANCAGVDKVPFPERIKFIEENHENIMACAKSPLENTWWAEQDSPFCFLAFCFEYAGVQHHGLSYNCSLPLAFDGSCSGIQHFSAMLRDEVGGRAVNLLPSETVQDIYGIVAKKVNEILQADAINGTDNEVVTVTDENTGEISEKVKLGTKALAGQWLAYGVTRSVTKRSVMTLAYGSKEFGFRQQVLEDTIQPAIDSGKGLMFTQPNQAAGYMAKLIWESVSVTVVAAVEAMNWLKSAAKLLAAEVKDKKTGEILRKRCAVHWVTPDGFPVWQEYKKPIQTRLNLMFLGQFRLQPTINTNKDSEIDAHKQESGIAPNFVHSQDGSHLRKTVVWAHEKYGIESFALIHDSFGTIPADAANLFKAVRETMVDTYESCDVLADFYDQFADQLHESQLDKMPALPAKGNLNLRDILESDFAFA
Procedure: Using the T7P-EGFP constructed above as a template and rNTP as substrates, the reaction was carried out at 37° C. for 2 hours which was catalyzed by T7 RNA polymerase. After the reaction, the template DNA T7P-EGFP was degraded with DNase I. Finally, the RNA was precipitated and purified, and the transcription effect of the RNA was detected by agarose gel electrophoresis. The T7P-EGFP template sequence and HeLa genomic RNA were used as the control group.
EGFP-RNA was transcript with T7 transcription kit (Takara) in vitro. The system was kept at 37° C. for 2 hours. 1-4 extended to 6 hours. Then the templets were digested with DNase 1, 37° C. for 30 minutes. […] RNA concentration was determined with a Nanodrop One microvolume UV-Vis. spectrophotometer.

SelU, sequence (P33667 whole entry): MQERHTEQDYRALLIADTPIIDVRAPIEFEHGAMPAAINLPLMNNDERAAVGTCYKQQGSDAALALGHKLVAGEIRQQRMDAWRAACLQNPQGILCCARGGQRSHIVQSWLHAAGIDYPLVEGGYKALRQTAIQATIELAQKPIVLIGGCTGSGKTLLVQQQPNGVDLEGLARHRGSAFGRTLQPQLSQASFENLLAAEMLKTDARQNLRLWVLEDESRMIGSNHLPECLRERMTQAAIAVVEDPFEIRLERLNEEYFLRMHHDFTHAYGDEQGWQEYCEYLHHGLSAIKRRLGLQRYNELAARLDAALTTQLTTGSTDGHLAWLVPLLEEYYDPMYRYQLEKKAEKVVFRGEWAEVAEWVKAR

CC(C)=CCCC(C)CCOP(=O)(O)OP(=O)(O)O (centres unmarked) [Ge2, 3,7-dimethyloct-6-en-1-yl pyrophosphate]
modified RNA residues after click reaction and RNase cleavage (recognition by SelU) [1]: no modified RNA residues

C/C(=C\COP(=O)(O)OP(=O)(O)O)CC/C=C(\C)CN=[N+]=[N-] [Ge5]
fluorescent labelling of tRNA^Gln, Glu, Lys after SelU-mediated transfer of the ligand [1]: efficient fluorescent signal of tRNA was observed | red fluorescence in cells, two-step ACT-Flu approach ([2]; SelU co-transfected, probe DBCO-Cy5): strong red florescence

CC(C)=CCNc1ncnc2c1ncn2[C@@H]1O[C@H](CO)[C@@H](O)[C@H]1O [i^6A (4), N^6-(3-methylbut-2-enyl)-adenosine]
cytotoxic concentration ([3]; HeLa cells): 800 µM | effect on cell viability ([3]; concentration 800 μM): cell viability will be significantly inhibited | effect on cells ([3]; concentration 2.0 mM): significant inhibitory effect on cells | effect on cell viability ([3]; concentration within 400 μM): little effect on cell viability | fluorescence signal of total RNA after PTAD-DBCO-FITC (8) staining ([4]; cells cultured in the presence of i^6A, none in control group): significant fluorescence signal was detected | fluorescence signal of total RNA after PTAD-DBCO-FITC (8) staining ([4]; i^6A 800 μM): weaker RNA fluorescence signal | conversion yield in reaction with PTAD [5]: approximately 50% | time to full conversion with iodine [6]: less than 5 minutes

CC(C)=CCCOP(=O)(O)OP(=O)(O)O [Ge3, 4-methylpent-3-en-1-yl Diphosphate Tetrabutyl Ammonium Trimer]
modified RNA residues after click reaction and RNase cleavage (recognition by SelU) [1]: no modified RNA residues

CN1/C(=C/C=C/C=C/C2=[N+](CCCCCC(=O)NCCC(=O)N3Cc4ccccc4-c4c(nnn4CCOc4ccc(N5C(=O)N=NC5=O)cc4)-c4ccccc43)c3ccccc3C2(C)C)C(C)(C)c2ccccc21.[Cl-] [PTAD-DBCO-Cy5]
fluorescent signal of total RNAs treated with the probe [7]: a red fluorescent signal was observed

CC(C)=CCC/C(C)=C/COP(=O)(O)OP(=O)(O)O [Ge1, (E)-3,7-dimethylocta-2,6-dien-1-yldiphosphate Tetrabutylammonium Trimer, reference compound]
red fluorescence of geranylated tRNA in cells, direct labelling ([2]; transfected SelU and 5s (tRNA^Lys), probe PTAD-DBCO-Cy5): clearly showed the red fluorescence

C/C(=C\COP(=O)(O)OP(=O)(O)O)CC/C=C(\C)COC(=O)CCC(=O)N1Cc2ccccc2C#Cc2ccccc21 [Ge7]
fluorescent labelling of tRNA^Gln, Glu, Lys after SelU-mediated transfer of the ligand [1]: failed

CC(C)=CCNc1ncnc2c1ncn2C1OC(COP(=O)(O)OP(=O)(O)OP(=O)(O)O)C(O)C1O (centres unmarked) [i^6ATP]
recognition efficiency of T7 RNA polymerase ([8]; compared with K4, preliminary experiments): significantly higher than that of K4 | recognition efficiency by T7 RNA polymerase ([8]; compared with rATP): low comparing with rATP
